Where a name gives a salt, the structure may show the parent alone.

In one experiment the target is SARS-CoV-2 Mac1 (Severe acute respiratory syndrome coronavirus 2, UniProt P0DTD1). Description: biochemical. To be noted: 100 µM; inhibitor.
The %inhibition is the relative decrease from the control value, in per cent. A high value points to strong suppression. On to `CN(C)CC(c1ccc(O)cc1)C1(O)CCCCC1` (stereo not drawn) [Desvenlafaxine], for which the “%inhibition” value was found to be 6.836%.
The same measure, in the same setting: then `C[C@@H]1C[C@H]2[C@@H]3CCC4=CC(=O)C=C[C@]4(C)[C@@]3(F)[C@@H](O)C[C@]2(C)[C@@]1(O)C(=O)CO` [Dexamethasone (DHAP)], with 0%; and `Cc1cccc([C@H](C)c2c[nH]cn2)c1C` [Dexmedetomidine HCl], with 0%.
With `Cc1cccc([C@H](C)c2c[nH]cn2)c1C` [Dexmedetomidine], the “%inhibition” value was 18.38%.
For `C[C@@H](CN1CC(=O)NC(=O)C1)N1CC(=O)NC(=O)C1` [Dexrazoxane HCl (ICRF-187, ADR-529)], the “%inhibition” value came to 32.25%.
Same read-out and setting: with `C[C@@H](CN1CC(=O)NC(=O)C1)N1CC(=O)NC(=O)C1` [Dexrazoxane] the figure was 12.37%; with `O=C(O)Cc1ccccc1Nc1c(Cl)cccc1Cl` [Diclofenac Diethylamine], 0%.
In the case of `O=C(O)Cc1ccccc1Nc1c(Cl)cccc1Cl` [Diclofenac Potassium], the “%inhibition” value is listed as 7.108%.
On the same count and under the same terms, with `O=C(O)Cc1ccccc1Nc1c(Cl)cccc1Cl` [Diclofenac Sodium] the figure was 15.35%.

The experiment is the same for the next values; noted with them: read-out: %inhibition.
One may read the inhibition as the relative decrease from the control value, in per cent. In the case of `COc1c(-c2ccc3cc(NS(C)(=O)=O)ccc3c2)cc(-n2ccc(=O)[nH]c2=O)cc1C(C)(C)C` [Dasabuvir(ABT-333)], the inhibition at 100 µM was found to be 0.42%.
On the same count and under the same terms, with `COc1cccc2c1C(=O)c1c(O)c3c(c(O)c1C2=O)C[C@@](O)(C(C)=O)C[C@@H]3O[C@H]1C[C@H](N)[C@H](O)[C@H](C)O1` [Daunorubicin HCl] the figure was 30.2%; with `C[N+](C)(C)CCCCCCCCCC[N+](C)(C)C` [Decamethonium Bromide], 0%.
As to `Nc1ncn([C@H]2C[C@H](O)[C@@H](CO)O2)c(=O)n1` [Decitabine], the inhibition at 100 µM was 0%.
Same read-out and setting: with `CNC(=O)c1ccc(Nc2ncc(C(F)(F)F)c(NCc3nccnc3N(C)S(C)(=O)=O)n2)cc1` [Defactinib (VS-6063, PF-04554878)] the figure was 0%; with `O=C(O)c1ccc(-n2nc(-c3ccccc3O)nc2-c2ccccc2O)cc1` [Deferasirox], 16.8%.
On to `Cc1c(O)c(=O)ccn1C` [Deferiprone], for which the inhibition at 100 µM was found to be 0%.
As to `CC(=O)OCC(=O)[C@@]12N=C(C)O[C@@H]1C[C@H]1[C@@H]3CCC4=CC(=O)C=C[C@]4(C)[C@H]3[C@@H](O)C[C@@]12C` [Deflazacort], the inhibition at 100 µM is 37.4%.
The same measure, in the same setting: then `C[C@H](CCC(=O)O)[C@H]1CC[C@H]2[C@@H]3C(=O)C[C@@H]4CC(=O)CC[C@]4(C)[C@H]3CC(=O)[C@]12C` [Dehydrocholic acid], with 0%; and `CC(=O)O[C@H]1CC[C@@]2(C)C(=CC[C@@H]3[C@@H]2CC[C@]2(C)C(=O)CC[C@@H]32)C1` [Dehydroepiandrosterone acetate], with 15.8%; and `C[C@]1(COc2ccc(N3CCC(Oc4ccc(OC(F)(F)F)cc4)CC3)cc2)Cn2cc([N+](=O)[O-])nc2O1` [Delamanid], with 22.1%.
Still for that read-out and setting: then `CC(C)C[C@H](NC(=O)[C@@H](NC(=O)c1cccc(-c2ccccc2)n1)[C@@H](C)O)B(O)O` [Delanzomib (CEP-18770)], with 0%; and `CCOC(=O)[C@H](CCc1ccccc1)N[C@@H](C)C(=O)N(CC(=O)O)C1Cc2ccccc2C1` [Delapril Hydrochloride], with 0.215%; and `CN(C)[C@@H]1C(O)=C(C(N)=O)C(=O)[C@@]2(O)C(O)=C3C(=O)c4c(O)ccc(Cl)c4[C@@H](O)[C@H]3C[C@@H]12` [Demeclocycline HCl], with 4.3%.
On to `C[C@H](CCC(=O)O)[C@H]1CC[C@H]2[C@@H]3CC[C@@H]4C[C@H](O)CC[C@]4(C)[C@H]3C[C@H](O)[C@]12C` [Deoxycholic acid], for which the inhibition at 100 µM is 0%.
In the case of `CC(=O)OCC(=O)[C@H]1CC[C@H]2[C@@H]3CCC4=CC(=O)CC[C@]4(C)[C@H]3CC[C@]12C` [Deoxycorticosterone acetate], the inhibition at 100 µM was determined as 3.46%.
The same measure, in the same setting: with `CNCCCN1c2ccccc2CCc2ccccc21` [Desipramine Hydrochloride] the figure was 15.3%.
The same measure, in the same setting: with `N=C(N)NCCC[C@@H](NC(=O)[C@@H]1CCCN1C(=O)[C@@H]1CSSCCC(=O)N[C@@H](Cc2ccc(O)cc2)C(=O)N[C@@H](Cc2ccccc2)C(=O)N[C@@H](CCC(N)=O)C(=O)N[C@@H](CC(N)=O)C(=O)N1)C(=O)NCC(N)=O` [Desmopressin Acetate] the figure was 8.25%.
Same read-out and setting: with `C#C[C@]1(O)CC[C@H]2[C@@H]3CCC4=CCCC[C@@H]4[C@H]3C(=C)C[C@@]21CC` [Desogestrel] the figure was 0%; with `CC1(C)O[C@@H]2C[C@H]3[C@@H]4CCC5=CC(=O)C=C[C@]5(C)[C@H]4[C@@H](O)C[C@]3(C)[C@]2(C(=O)CO)O1` [Desonide], 17.1%; with `CN(C)CC(c1ccc(O)cc1)C1(O)CCCCC1` (stereo not drawn) [Desvenlafaxine Succinate], 7.7%.
Take `Cc1cccc(Cc2c[nH]cn2)c1C` [Detomidine HCl]: the inhibition at 100 µM stood at 0%.
As for `CC(=O)OCC(=O)[C@@]1(O)[C@H](C)C[C@H]2[C@@H]3CCC4=CC(=O)C=C[C@]4(C)[C@@]3(F)[C@@H](O)C[C@@]21C` [Dexamethasone Acetate], the inhibition at 100 µM is 0%.
Same read-out and setting: with `Cc1c(OCC(F)(F)F)ccnc1C[S@@+]([O-])c1nc2ccccc2[nH]1` [Dexlansoprazole] the figure was 13.9%.
The same measure, in the same setting: with `COc1ccc2c(c1)[C@]13CCCC[C@@H]1[C@H](C2)N(C)CC3` [Dextromethorphan hydrobromide hydrate] the figure was 8.58%; with `OC[C@H]1OC(O)[C@H](O)[C@@H](O)[C@@H]1O` (stereo partly drawn) [Dextrose], 0%.
Same read-out and setting: then `CC(=O)Oc1cccc2c1C(=O)c1c(OC(C)=O)cc(C(=O)O)cc1C2=O` [Diacerein], with 3.21%.
As to `C=C=CCNC(=O)c1ccc(F)cc1` [Diastase], the inhibition at 100 µM turned out to be 0%.
Regarding `CC(=O)Nc1c(I)c(NC(C)=O)c(I)c(C(=O)O)c1I` [Diatrizoate sodium], the inhibition at 100 µM came to 7.54%.
Still for that read-out and setting: then `CC1=Nc2ccc(Cl)cc2S(=O)(=O)N1` [Diazoxide], with 0%; and `CCCC(=O)Nc1ncnc2c1ncn2[C@@H]1O[C@@H]2COP(=O)(O)O[C@H]2[C@H]1OC(=O)CCC` [Dibutyryl-cAMP (Bucladesine)], with 4.86%; and `Oc1ccc(Cl)cc1Cc1cc(Cl)ccc1O` [Dichlorophene], with 15%.
As for `NS(=O)(=O)c1cc(Cl)c(Cl)c(S(N)(=O)=O)c1` [Dichlorphenamide (Diclofenamide)], the inhibition at 100 µM stood at 3.01%.
In the case of `N#CC(c1ccc(Cl)cc1)c1c(Cl)cc(-n2ncc(=O)[nH]c2=O)cc1Cl` (stereo not drawn) [Diclazuril], the inhibition at 100 µM is 0%.
`Cc1onc(-c2c(Cl)cccc2Cl)c1C(=O)N[C@@H]1C(=O)N2[C@@H]1SC(C)(C)[C@@H]2C(=O)O` [Dicloxacillin Sodium]: the inhibition at 100 µM is 10.8%.
With `O=c1oc2ccccc2c(O)c1Cc1c(O)c2ccccc2oc1=O` [Dicoumarol], the inhibition at 100 µM stood at 13.4%.
Same read-out and setting: then `C[C@]12CCC3=C4CCC(=O)C=C4CC[C@H]3[C@@H]1CC[C@@]2(O)CC#N` [Dienogest], with 22%; and `CCN(CC)C(=O)N1CCN(C)CC1` [Diethylcarbamazine citrate], with 0%; and `CN1CCN(c2cc3c(cc2F)c(=O)c(C(=O)O)cn3-c2ccc(F)cc2)CC1` [Difloxacin HCl], with 2.61%.
In the case of `O=C(O)c1cc(-c2ccc(F)cc2F)ccc1O` [Diflunisal], the inhibition at 100 µM is 0.967%.
On the same count and under the same terms, with `CCCC(=O)O[C@]1(C(=O)COC(C)=O)CC[C@H]2[C@@H]3C[C@H](F)C4=CC(=O)C=C[C@]4(C)[C@@]3(F)[C@@H](O)C[C@@]21C` [Difluprednate] the figure was 22.2%; with `C[C@H]1O[C@@H](O[C@H]2[C@@H](O)C[C@H](O[C@H]3[C@@H](O)C[C@H](O[C@H]4CC[C@@]5(C)[C@H](CC[C@@H]6[C@@H]5C[C@@H](O)[C@]5(C)[C@@H](C7=CC(=O)OC7)CC[C@]65O)C4)O[C@@H]3C)O[C@@H]2C)C[C@H](O)[C@@H]1O` [Digoxin], 13.2%.
On the same count and under the same terms, with `N/N=c1\[nH][nH]/c(=N\N)c2ccccc12` [Dihydralazine sulphate] the figure was 45.1%.
For the compound `C[C@H]1[C@@H](O)O[C@@H]2O[C@@]3(C)CC[C@H]4[C@H](C)CC[C@@H]1[C@@]24OO3` [Dihydroartemisinin (DHA)], the inhibition at 100 µM was found to be 0%.
For `CN[C@@H]1[C@H](O[C@H]2[C@H](O[C@H]3[C@H](O)[C@@H](O)[C@H](N=C(N)N)[C@@H](O)[C@@H]3N=C(N)N)O[C@@H](C)[C@]2(O)CO)O[C@@H](CO)[C@H](O)[C@H]1O` [Dihydrostreptomycin sulfate], the inhibition at 100 µM came out at 6.08%.
The same measure, in the same setting: then `Oc1c(I)cc(I)c2cccnc12` [Diiodohydroxyquinoline], with 6.28%; and `COc1ccc([C@@H]2Sc3ccccc3N(CCN(C)C)C(=O)[C@@H]2OC(C)=O)cc1` [Diltiazem HCl], with 25.7%; and `Cc1ccc2c(c1)[C@]13CCCC[C@@H]1[C@H](C2)N(C)CC3` [Dimemorfan phosphate], with 0%.
Take `O=S(=O)(O)CCSSCCS(=O)(=O)O` [Dimesna]: the inhibition at 100 µM turned out to be 22.1%.
With `COC(=O)/C=C/C(=O)OC` [Dimethyl Fumarate], the inhibition at 100 µM was 23.8%.
Same read-out and setting: then `Cc1c(C(N)=O)cc([N+](=O)[O-])cc1[N+](=O)[O-]` [Dinitolmide], with 6.05%; and `CCCCC[C@H](O)/C=C/[C@@H]1[C@@H](C/C=C\CCCC(=O)O)[C@@H](O)C[C@H]1O` [Dinoprost tromethamine], with 32.6%.
Regarding `COc1ccc(-c2cc(=O)c3c(O)cc(O[C@@H]4O[C@H](CO[C@@H]5O[C@@H](C)[C@H](O)[C@@H](O)[C@H]5O)[C@@H](O)[C@H](O)[C@H]4O)cc3o2)cc1O` [Diosmin], the inhibition at 100 µM worked out at 11.9%.
Consider `O=C(Nc1ccccc1)OCC(CN1CCCCC1)OC(=O)Nc1ccccc1` (stereo not drawn) [Diperodon HCl], for which the inhibition at 100 µM was 0.82%.

The record behind these values is publication doi:10.1101/2021.10.07.463234v2 (biorxiv, 2021).
